{"source": "ChEMBL document CHEMBL1201862", "about": "“PubChem BioAssay data set” (2004)", "key": {"[1]": {"target": "T1, Ubiquitin-conjugating enzyme E2 N (Homo sapiens, UniProt P61088)", "T1 sequence (P61088 whole entry)": "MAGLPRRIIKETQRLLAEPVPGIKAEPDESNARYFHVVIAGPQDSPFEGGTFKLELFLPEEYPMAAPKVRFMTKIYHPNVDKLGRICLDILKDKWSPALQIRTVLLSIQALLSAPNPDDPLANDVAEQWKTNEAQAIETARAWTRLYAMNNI", "type": "functional"}, "A-375 [2]": {"test_system": "A-375", "experiment": "A375 melanoma cell viability reduction, dose response, counter-screen for MITF modulator project, cherry-pick samples, set 2 (AID 540335)", "type": "functional, cell-based", "conditions": "Homo sapiens"}, "A-375 [3]": {"test_system": "A-375", "experiment": "MITF: Counter assay: A375 proliferation Measured in Cell-Based System Using Plate Reader - 2084-03_Inhibitor_Dose_DryPowder_Activity. [Related pubchem assays (depositor defined):AID488944]", "type": "functional", "conditions": "Homo sapiens"}, "[4]": {"target": "T2, Microphthalmia-associated transcription factor (Homo sapiens, UniProt O75030)", "T2 sequence (O75030 whole entry)": "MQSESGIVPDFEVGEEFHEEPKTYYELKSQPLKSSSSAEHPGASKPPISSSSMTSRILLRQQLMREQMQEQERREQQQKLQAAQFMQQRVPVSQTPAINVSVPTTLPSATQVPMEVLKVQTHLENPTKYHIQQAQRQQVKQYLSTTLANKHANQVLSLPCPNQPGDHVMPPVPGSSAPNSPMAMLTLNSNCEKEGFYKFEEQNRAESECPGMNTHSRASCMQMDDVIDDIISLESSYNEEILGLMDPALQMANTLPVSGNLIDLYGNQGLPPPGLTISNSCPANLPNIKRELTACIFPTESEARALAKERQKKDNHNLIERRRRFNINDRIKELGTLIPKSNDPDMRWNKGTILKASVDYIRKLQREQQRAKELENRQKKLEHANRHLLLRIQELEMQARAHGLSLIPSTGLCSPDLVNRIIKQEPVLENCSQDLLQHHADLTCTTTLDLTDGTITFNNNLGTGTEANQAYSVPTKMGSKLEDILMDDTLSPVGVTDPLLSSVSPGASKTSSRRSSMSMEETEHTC", "experiment": "TRPM1 promoter luciferase signal decrease, dose response, MITF inhibitor project, cell-based, SK-MEL-5, cherry-picked, set 3 (AID 493073)", "type": "functional"}, "[5]": {"target": "DNA dC->dU-editing enzyme APOBEC-3G (Homo sapiens, UniProt Q9HC16)", "sequence (Q9HC16 whole entry)": "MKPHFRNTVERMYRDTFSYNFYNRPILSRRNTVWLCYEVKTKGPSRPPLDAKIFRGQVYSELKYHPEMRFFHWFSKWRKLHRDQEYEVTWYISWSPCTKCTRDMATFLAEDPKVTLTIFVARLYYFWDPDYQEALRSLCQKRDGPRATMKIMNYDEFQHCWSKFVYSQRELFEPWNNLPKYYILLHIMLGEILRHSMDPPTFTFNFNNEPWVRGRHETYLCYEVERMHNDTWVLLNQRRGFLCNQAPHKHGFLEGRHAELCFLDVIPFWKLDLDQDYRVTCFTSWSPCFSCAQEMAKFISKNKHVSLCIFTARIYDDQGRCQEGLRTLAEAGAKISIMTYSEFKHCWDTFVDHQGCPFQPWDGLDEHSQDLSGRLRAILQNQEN", "type": "functional"}, "[6]": {"target": "DNA dC->dU-editing enzyme APOBEC-3A (Homo sapiens, UniProt P31941)", "sequence (P31941 whole entry)": "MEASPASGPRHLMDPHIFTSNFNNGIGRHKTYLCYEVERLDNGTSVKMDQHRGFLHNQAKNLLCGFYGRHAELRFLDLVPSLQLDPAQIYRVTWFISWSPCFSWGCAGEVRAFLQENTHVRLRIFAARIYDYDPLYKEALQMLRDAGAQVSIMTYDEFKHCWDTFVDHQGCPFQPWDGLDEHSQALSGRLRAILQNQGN", "experiment": "Dose Response confirmation of small molecule APOBEC3A DNA Deaminase Inhibitors via a fluorescence-based single-stranded DNA deaminase assay. [Related pubchem assays (depositor defined):AID493011, AID493024]", "type": "functional"}, "INS1": {"test_system": "INS1", "experiment": "beta cell apoptosis inhibitors, cytokine rescue, dose response, luminescence, retest (AID 449756);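 further: cell death triggered by IL-1 beta plus TNF-alpha plus IFN-gamma mixture; protective hits raise ATP signal compared with cytokine alone wells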", "type": "functional, cell-based", "conditions": "Rattus norvegicus"}, "Beta-galactosidase": {"target": "Beta-galactosidase (Escherichia coli, UniProt Q8VNN2)", "sequence (Q8VNN2 whole entry)": "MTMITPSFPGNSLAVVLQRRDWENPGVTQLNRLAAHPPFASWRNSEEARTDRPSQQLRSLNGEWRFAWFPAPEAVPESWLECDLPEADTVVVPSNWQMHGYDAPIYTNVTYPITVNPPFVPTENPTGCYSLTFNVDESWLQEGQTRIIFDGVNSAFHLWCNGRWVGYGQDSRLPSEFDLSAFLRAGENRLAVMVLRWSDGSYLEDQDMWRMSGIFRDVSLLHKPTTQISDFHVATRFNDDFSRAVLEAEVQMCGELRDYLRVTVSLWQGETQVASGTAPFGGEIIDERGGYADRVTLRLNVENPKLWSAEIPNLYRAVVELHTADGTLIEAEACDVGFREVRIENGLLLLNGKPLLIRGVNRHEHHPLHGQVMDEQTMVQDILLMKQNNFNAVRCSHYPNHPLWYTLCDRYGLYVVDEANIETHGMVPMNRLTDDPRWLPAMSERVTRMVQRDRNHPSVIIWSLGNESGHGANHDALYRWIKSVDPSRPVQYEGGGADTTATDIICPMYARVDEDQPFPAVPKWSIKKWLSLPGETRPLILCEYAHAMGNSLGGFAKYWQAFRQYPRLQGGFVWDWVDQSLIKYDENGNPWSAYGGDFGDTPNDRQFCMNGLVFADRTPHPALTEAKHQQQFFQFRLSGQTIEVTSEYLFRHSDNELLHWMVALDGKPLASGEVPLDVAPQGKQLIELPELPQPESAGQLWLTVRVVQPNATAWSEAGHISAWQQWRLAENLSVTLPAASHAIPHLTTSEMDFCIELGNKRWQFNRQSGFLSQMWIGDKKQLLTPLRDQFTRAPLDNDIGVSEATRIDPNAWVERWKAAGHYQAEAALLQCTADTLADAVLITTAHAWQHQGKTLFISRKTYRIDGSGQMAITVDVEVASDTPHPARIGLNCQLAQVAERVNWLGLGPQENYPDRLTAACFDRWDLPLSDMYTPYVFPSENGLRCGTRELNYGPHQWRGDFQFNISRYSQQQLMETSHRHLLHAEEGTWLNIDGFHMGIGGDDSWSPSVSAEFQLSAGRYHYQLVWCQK", "experiment": "beta-galactosidase enzyme inhibitors and activators, dose response, artefact control for CCR6 antagonist project, biochemical, E. coli enzyme, set 3 (AID 504712)", "type": "functional"}, "[7]": {"target": "T3, Polyadenylate-binding protein 1 (Homo sapiens, UniProt P11940)", "T3 sequence (P11940 whole entry)": "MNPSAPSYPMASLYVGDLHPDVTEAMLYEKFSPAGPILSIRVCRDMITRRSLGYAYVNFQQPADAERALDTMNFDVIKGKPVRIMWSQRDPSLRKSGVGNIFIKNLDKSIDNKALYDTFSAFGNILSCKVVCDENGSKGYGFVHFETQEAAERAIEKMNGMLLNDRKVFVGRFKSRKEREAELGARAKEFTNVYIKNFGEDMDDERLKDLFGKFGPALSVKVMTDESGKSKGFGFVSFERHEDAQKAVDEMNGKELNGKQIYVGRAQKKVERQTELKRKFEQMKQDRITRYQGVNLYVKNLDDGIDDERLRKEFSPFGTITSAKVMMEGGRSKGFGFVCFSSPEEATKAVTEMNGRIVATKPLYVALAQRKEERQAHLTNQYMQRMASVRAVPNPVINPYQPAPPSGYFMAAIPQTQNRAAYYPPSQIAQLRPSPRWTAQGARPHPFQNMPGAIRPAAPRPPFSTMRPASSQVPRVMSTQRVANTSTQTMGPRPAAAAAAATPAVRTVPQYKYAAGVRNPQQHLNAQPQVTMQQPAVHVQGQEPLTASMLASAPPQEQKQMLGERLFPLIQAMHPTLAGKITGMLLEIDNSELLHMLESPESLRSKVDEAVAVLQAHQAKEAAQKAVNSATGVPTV", "experiment": "PABP1 MLLE–PAM2 interaction inhibitors, dose response, miRNA deadenylation inhibitor project, biochemical, fluorescence polarization, Cy5-PAM2 peptide, secondary (AID 602260)", "type": "functional", "conditions": "read-out: IC50_Mean"}, "Cytochrome P450 2C9": {"target": "Cytochrome P450 2C9 (Homo sapiens, UniProt P11712)", "sequence (P11712 whole entry)": "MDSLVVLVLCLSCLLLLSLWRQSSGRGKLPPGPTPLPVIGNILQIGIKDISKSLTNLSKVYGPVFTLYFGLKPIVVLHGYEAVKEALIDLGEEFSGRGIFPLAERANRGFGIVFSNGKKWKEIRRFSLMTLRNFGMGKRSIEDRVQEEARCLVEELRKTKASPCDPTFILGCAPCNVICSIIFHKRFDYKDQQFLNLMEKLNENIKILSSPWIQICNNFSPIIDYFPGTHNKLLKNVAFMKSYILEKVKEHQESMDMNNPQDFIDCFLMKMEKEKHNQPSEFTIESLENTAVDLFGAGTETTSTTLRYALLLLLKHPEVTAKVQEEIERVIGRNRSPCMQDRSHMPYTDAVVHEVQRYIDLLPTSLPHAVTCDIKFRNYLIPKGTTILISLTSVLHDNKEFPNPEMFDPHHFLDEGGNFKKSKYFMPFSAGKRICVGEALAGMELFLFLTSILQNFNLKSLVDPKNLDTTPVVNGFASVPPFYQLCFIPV"}, "[8]": {"target": "T3, Polyadenylate-binding protein 1", "experiment": "PABP1 MLLE–PAM2 binding inhibitor potency, dose response, biochemical, fluorescence polarization, FITC-PAM2 peptide (AID 602259)", "type": "functional", "conditions": "read-out: IC50_Mean"}, "cells [9]": {"experiment": "cells", "type": "functional, cell-based"}, "HEK293": {"test_system": "HEK293", "experiment": "cells", "type": "functional, cell-based", "conditions": "Homo sapiens"}, "[10]": {"target": "T4, Oxysterols receptor LXR-beta (Homo sapiens, UniProt P55055)", "T4 sequence (P55055 whole entry)": "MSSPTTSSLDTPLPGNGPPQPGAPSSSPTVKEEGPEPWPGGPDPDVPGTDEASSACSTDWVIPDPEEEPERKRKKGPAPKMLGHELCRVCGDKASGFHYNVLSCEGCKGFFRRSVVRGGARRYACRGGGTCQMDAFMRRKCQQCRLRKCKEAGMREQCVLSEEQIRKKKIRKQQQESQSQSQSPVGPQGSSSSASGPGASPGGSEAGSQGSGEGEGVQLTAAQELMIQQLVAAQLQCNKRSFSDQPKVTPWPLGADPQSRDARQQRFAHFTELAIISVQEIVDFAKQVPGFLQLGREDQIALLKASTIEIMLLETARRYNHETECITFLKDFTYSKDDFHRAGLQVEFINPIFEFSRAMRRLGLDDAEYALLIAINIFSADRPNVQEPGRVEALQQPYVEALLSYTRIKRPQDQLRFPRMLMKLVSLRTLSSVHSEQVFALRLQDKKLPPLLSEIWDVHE", "type": "functional, cell-based"}, "[11]": {"experiment": "Luminescence Cell-Based Dose Confirmation HTS to Identify Activators of 5'UTR Stem-Loop Driven Alpha-Synuclein mRNA Translation in H4 Neuroglioblastoma Cells. [Related pubchem assays: 1829 (Project Summary), 1814 (Primary HTS)]", "type": "functional"}, "H4": {"test_system": "H4", "experiment": "Luminescence Cell-Based Dose Response HTS to Identify Activators of 5'UTR Stem-Loop Driven Prion Protein mRNA Translation in H4 Neuroglioblastoma Cells. [Related pubchem assays: 1829 (Project Summary), 1814 (Primary HTS)]", "type": "functional", "conditions": "Homo sapiens"}, "[12]": {"experiment": "Luminescence Cell-Based Dose Response HTS to Identify Activators of Luciferase Translation or Activity in H4 […] Cells. [Related pubchem assays: 1829 (Project Summary), 1814 (Primary HTS)]", "type": "functional"}, "[13]": {"experiment": "HepG2 cell cytotoxicity, dose response, cytotoxicity control, ATP luminescence, cherry-pick, activator set 2 (AID 1053143)", "type": "functional, cell-based"}, "[14]": {"target": "T5, Nuclear receptor subfamily 0 group B member 1 (Homo sapiens, UniProt P51843)", "T5 sequence (P51843 whole entry)": "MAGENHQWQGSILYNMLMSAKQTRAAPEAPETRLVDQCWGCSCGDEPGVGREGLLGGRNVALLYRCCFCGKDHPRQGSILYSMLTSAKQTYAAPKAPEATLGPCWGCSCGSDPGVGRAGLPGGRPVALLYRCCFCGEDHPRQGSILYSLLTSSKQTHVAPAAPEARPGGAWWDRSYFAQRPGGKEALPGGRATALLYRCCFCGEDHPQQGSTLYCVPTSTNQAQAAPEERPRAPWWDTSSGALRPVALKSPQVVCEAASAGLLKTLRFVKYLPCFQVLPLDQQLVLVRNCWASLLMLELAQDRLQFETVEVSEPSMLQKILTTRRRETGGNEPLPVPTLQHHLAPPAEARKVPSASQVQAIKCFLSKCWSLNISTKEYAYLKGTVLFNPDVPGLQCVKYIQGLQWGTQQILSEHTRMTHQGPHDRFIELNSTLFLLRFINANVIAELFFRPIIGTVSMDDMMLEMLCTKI", "experiment": "Luminescence-based cell-based high throughput dose response assay for inhibitors of the orphan nuclear receptor subfamily 0, group B, member 1 (DAX1; NR0B1). [Related pubchem assays (depositor defined):AID504766, AID504790]", "type": "functional"}, "cells [15]": {"experiment": "cells", "type": "functional, cell-based", "remark": "listed apart in the source"}, "[16]": {"target": "Voltage-gated inwardly rectifying potassium channel KCNH2 (Homo sapiens, UniProt Q12809)", "sequence (Q12809 whole entry)": "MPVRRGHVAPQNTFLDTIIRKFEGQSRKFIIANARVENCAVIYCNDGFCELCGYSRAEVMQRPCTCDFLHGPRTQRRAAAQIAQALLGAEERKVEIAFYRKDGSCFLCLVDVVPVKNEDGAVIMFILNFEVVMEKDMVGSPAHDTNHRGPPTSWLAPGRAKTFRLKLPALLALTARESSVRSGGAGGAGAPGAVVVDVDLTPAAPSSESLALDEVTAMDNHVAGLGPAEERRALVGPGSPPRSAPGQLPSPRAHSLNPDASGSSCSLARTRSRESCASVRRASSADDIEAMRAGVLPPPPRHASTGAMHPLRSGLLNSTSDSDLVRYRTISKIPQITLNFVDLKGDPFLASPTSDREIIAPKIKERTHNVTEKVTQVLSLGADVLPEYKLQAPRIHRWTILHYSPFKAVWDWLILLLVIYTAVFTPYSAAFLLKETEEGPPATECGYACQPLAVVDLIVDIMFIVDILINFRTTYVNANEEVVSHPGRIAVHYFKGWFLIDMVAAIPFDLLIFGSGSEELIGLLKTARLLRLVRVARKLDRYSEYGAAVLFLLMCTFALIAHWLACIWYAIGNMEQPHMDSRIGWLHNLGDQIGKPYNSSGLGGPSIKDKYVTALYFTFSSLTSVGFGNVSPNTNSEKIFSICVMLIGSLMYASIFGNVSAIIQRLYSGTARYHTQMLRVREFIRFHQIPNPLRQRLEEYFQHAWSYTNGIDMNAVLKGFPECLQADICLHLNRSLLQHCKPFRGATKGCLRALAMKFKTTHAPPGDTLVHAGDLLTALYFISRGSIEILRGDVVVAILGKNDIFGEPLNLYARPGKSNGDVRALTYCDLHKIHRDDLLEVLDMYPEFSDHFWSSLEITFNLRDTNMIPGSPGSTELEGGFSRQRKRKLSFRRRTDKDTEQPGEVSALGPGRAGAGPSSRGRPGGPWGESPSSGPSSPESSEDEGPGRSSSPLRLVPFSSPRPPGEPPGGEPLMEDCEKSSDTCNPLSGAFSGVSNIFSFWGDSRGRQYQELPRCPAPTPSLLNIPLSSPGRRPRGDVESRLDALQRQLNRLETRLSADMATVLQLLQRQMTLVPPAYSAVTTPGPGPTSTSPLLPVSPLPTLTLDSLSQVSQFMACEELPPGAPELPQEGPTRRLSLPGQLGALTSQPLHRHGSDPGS", "conditions": "Potency"}}, "note": "Structures can show the parent of a compound that is named as a salt. The source made the active and inactive calls."}
{"compound": "COC(=O)C1=C(C)N(Cc2ccccc2)C(NCCc2cccnc2)=N[C@H]1c1ccc(Br)cc1", "values": [{"measurement": "IC50", "setting": "[1]", "result": "> 20 µM (inactive)"}, {"measurement": "AC50", "setting": "A-375 [2]", "result": "> 11 µM (active)"}, {"measurement": "AC50", "setting": "A-375 [3]", "result": "> 11 µM (active)"}, {"measurement": "AC50", "setting": "[4]", "result": "17.8 µM (active)"}, {"measurement": "IC50", "setting": "[5]", "result": "4.68 µM (active)"}, {"measurement": "IC50", "setting": "[6]", "result": "3.04 µM (active)"}]}
{"compound": "CC(C)Oc1ccc(C(CCN)C2CCCCC2)cc1", "note": "(stereo unspecified)", "values": [{"measurement": "AC50", "setting": "INS1", "result": "7.47 µM (active)"}, {"measurement": "AC50", "setting": "A-375 [3]", "result": "17.7 µM (active)"}, {"measurement": "AC50", "setting": "[4]", "result": "9.99 µM (active)"}]}
{"compound": "O=C1NC(=S)NC(=O)C1=Cc1cccc2cc3ccccc3cc12", "values": [{"measurement": "IC50", "setting": "Beta-galactosidase", "result": "> 66.6 µM (inactive)"}, {"measurement": "AC50", "setting": "A-375 [2]", "result": "> 35 µM (active)"}, {"measurement": "AC50", "setting": "A-375 [3]", "result": "> 35 µM (active)"}, {"measurement": "IC50", "setting": "[7]", "result": "> 66 µM (inactive)"}, {"measurement": "AC50", "setting": "[4]", "result": "4.81 µM (active)"}, {"measurement": "AC50", "setting": "Cytochrome P450 2C9", "result": "3.16 µM (inconclusive)"}, {"measurement": "IC50", "setting": "[8]", "result": "> 66 µM (inactive)"}]}
{"compound": "O=C(Nc1ccccc1O)c1ccc(NS(=O)(=O)c2cccc3cccnc23)cc1", "values": [{"measurement": "EC50", "setting": "cells [9]", "result": "8.05 µM (active)"}, {"measurement": "IC50", "setting": "HEK293", "result": "0.695 µM (active)"}, {"measurement": "EC50", "setting": "[10]", "result": "> 67.5 µM (inactive)"}, {"measurement": "EC50", "setting": "[11]", "result": "11.2 µM (active)"}, {"measurement": "EC50", "setting": "H4", "result": "34 µM (active)"}, {"measurement": "EC50", "setting": "[12]", "result": "10.7 µM (active)"}, {"measurement": "AC50", "setting": "[13]", "result": "9.01 µM (active)"}, {"measurement": "IC50", "setting": "[14]", "result": "> 67.5 µM (inactive)"}, {"measurement": "EC50", "setting": "cells [15]", "result": "> 350 µM (not active)"}]}
{"compound": "CCOC(=O)N1CCN(C(=O)COc2cc(=O)n(CC)c3ccccc23)CC1", "values": [{"measurement": "IC50", "setting": "HEK293", "result": "> 67.5 µM (inactive)"}, {"measurement": "IC50", "setting": "[14]", "result": "> 67.5 µM (inactive)"}]}
{"compound": "COc1ccc(CC(=O)NC2CCSc3ccccc32)c(OC)c1", "note": "(stereo unspecified)", "values": [{"measurement": "IC50", "setting": "HEK293", "result": "> 67.6 µM (inactive)"}, {"measurement": "IC50", "setting": "[14]", "result": "> 67.6 µM (inactive)"}]}
{"compound": "COC[C@H]1OC(=O)c2coc3c2[C@@]1(C)C1=C(C3=O)C2CCC(=O)[C@@]2(C)C[C@H]1OC(C)=O", "note": "(stereo partly specified)", "values": [{"measurement": "AC50", "setting": "[16]", "result": "17.8 µM (inconclusive)"}]}
{"compound": "C#CCOC(=O)C1=CCCN(C)C1", "note": "[ARECAIDINE PROPARGYL ESTER HYDROBROMIDE]", "values": [{"measurement": "AC50", "setting": "[16]", "result": "35.5 µM (inconclusive)"}]}
